Experimental findings from patent US20240390382A1, “METHOD FOR TREATING CANCER” (THE CHILDREN'S MEDICAL CENTER CORPORATION, priority 2021, published 2024) are described below.

The subject of one test is CTR9 edited CD34+HSPCs. As to the kind of experiment: HSC phenotyping (flow cytometry) of CTR9 edited CD34+ HSPCs, chemical rescue experiment. The conditions noted are these: inhibitor used at the concentration of IC50, vs DMSO. It is filed as cell-based, human. As for the experimental part:
(§1) HEK293T cells are cultured in DMEM supplemented with 10% FBS and 1× penicillin/streptomycin. Human CD34 HSPCs were purchased from Fred Hutchinson Cancer Institute and cultured in StemSpan serum free culture medium (StemCell Technologies) supplemented with 1×CC100, 2 mM L-glutamine, 100 ng/mL TPO, 1×UM171 and 1× penicillin/streptomycin. For RNP based CRISPR editing of CD34+HSPCs, chemically synthesized gRNA and Cas9 protein were mixed and set at room temperature for 10 mins to allow the formation of deliverable RNP. The assembled RNP complexes were then delivered into CD34+HSPCs by Lonza 4D Nucleofector with program DZ-100. 48-72 hrs after nucleofection, cells were harvested for genomic DNA and the edited region was PCR amplified and the editing efficiency was analyzed by the ICE analysis from Synthego. Edited CD34+HSPCs were allowed to expand in the culture medium and harvested twice at day 3 and day 6 post-nucleofection. Harvested cells were washed in cold PBS and stained by HSC phenotyping antibody cocktail, which is composed of Brilliant Violet 421 anti-CD34, APC-H7 anti-CD45RA, PE-Cy7 anti-CD90, BB700 anti-CD133, PE anti-EPCR and APC anti-ITGA3 in ice cold FACS buffer (PBS+2% FBS) at 1:60 for 30 minutes in ice. Stained cells were then analyzed by BD LSRII flow cytometer. For the chemical rescue experiment, CDK9 inhibitors (LDCO000067 and AZD4573) and the YEATS domain inhibitor of ENL/ILLT3 (SR-0813) were used at the concentration of IC50.
In general terms: Flow cytometry measures light scatter and fluorescence of single cells or particles in a stream.

For test [1], the system named is key leading edge genes (MLLT3 regulated) in CTR9 edited cells. As to the kind of experiment: qRT-PCR analysis of key leading edge genes in CTR9 edited cells. Format: cell-based, human. The conditions noted are these: two independent guides, inhibitor at the concentration of IC50, vs DMSO. As for the experimental part: as §1, with “For the chemical rescue experiment, CDK9 inhibitors (LDCO000067 and AZD4573) and the YEATS domain inhibitor of ENL/ILLT3 (SR-0813) were used at the concentration of IC50.” left out
RNA from HSPCs was harvested by Qiagen RNeasy kit and quantified by nanodrop. […]

“Also recorded” adds a separate entry of the source.

With `O=C(NC1CCC1)c1ccc2nc(-c3cccc(NS(=O)(=O)NCCN4CCCCC4)c3)cn2c1` [SR-0813], the “CTR9-perturbation-mediated HSC expansion (partial loss of CTR9)” value in the test on CTR9 edited CD34+HSPCs (CTR9 edited CD34+ HSPCs) is reported as “rescues HSC expansion phenotype; also recorded: completely suppressed”. Besides, in the test on CTR9 edited CD34+HSPCs (primary human HSPCs), the “impact on the bulk HSPC population (CD34+CD45RA-)” value is “without a major impact on the bulk HSPC population”; the “phenotypic LT- and ST-HSC expansion” value was “suppression of phenotypic LT- and ST-HSC expansion occurred”. In addition, the “expression of key upregulated target genes (leading edge genes)” value in test [1] is “downregulated many of the key upregulated target genes”.
